The term LD50 denotes the dose expected to kill half of the subjects tested. The low end stands for greater toxicity, the high end for lower toxicity. Broadly, the ED50 is the dose that gives a 50% effect, or the effect in half of the subjects.

Results on 13 molecules are retold here after US4338314A, “[1,2]Anellated-7-phenyl-1,4-benzodiazepine and pharmaceutical compositions thereof and use for treatment of ulcers” (Kali-Chemie Pharma GmbH, priority 1978, dated 1982).

Series [1] in a line: Acute 7-day toxicity after a single application per os (LD50). As to conditions: mouse, in vivo; single oral dose, unfed white NMRI mice, 7 days. On the procedure: The acute 7-day toxicity is determined after a single application per os in white NMRI mice which have not been fed. The calculation of the LD50 is carried out by probitananalysis by means of electronic data processing (see L. Cavalli-Sforza, Gustav-Fischer-Verlag, Stuttgart (1964), Grundbegriffe der Biometrie, Chapter 10, pages 153-190).

Series [2] has as its system indomethacine-induced ulcers. Nature of the series: Effectiveness against indomethacine-induced ulcers in rats. To be noted: Rattus norvegicus, 1 h before 40 mg/kg indomethacine, 24 h, read-out: Ulcer induced by indomethacine, % inhibited; for inhibition in vivo at 200 mg/kg: 200 mg/kg oral; for inhibition in vivo at 100 mg/kg: 100 mg/kg oral. In kind it is in vivo, rats (male). Here is the method:
2. Effectiveness Against Indomethacine-Induced Ulcers in Rats Modified Test Procedure According to U. Jahn and R. W. Adrian, Arzneimittel Forschung, (Drug Research) 19, (1969), p. 36.:
The animals of the blank control group receive the corresponding amount by volume of the suspension medium only. One hour after the application of the test compouns, a dosage of 40 mg/kg of indomethacine contained in an amount of 0.5 ml of a suspension per 100 g animal weight are orally applied to each animal for producing ulcers. Twenty-four hours after the application of the indomethacine the animals are sacrificed.

The test system of a further series is muscle tone. In words: Testing of musculatropic properties (traction test). The class given is in vivo. As to conditions: Mus musculus, 2 h; oral, mice, after 120 minutes; half of animals do not touch wire with hind legs within 5 seconds. On the procedure:
3. Testing of Musculatropic Properties:
In a traction test, mice are administered the test substance orally. After 120 minutes the mice are attached at the front paws to a horizontally suspended wire. The ED50 is the dose which causes exactly half of the animals not to touch the wire also with their hind legs within a period of 5 seconds, (W. Theobald et al, Arneim. Forschung 17, (1967), page 561). This test measures the influence of the test substance on the muscle tone of the test subject.

Series [3] relates to central nervous system (hexobarbital sleep time). Nature of the series: Central nervous depressant properties (prolonging the hexobarbital sleep time). In kind it is in vivo. To be noted: Mus musculus, 0.5 h; oral, mice, 30 minutes before 64 mg/kg hexobarbital; half of animals extend sleep by factor of 4; read-out: Prolonging hexobarbitol sleep time (ED50). Here is the method: 4. Testing of Central Nervous Depressant Properties (Prolonging the Hexobarbital sleep time):
The test substance is administered orally to mice. After 30 minutes, the animals are additionally injected with hexabarbitol in an amount of 64 mg/kg. The time point of the onset of sleeping posture is determined and the duration of sleeping posture is compared with a control group treated exclusively with hexobarbitol. The dose, with which half of the animals extend the time of sleeping posture by a factor of 4 over that of the control group, is defined as ED50. (J. W. Kemp. M. Tannhauser and E. A. Swingard, Arch. Int. Pharmacodyn. 193(1971), pp 34-47).

The next series has as its system central nervous system. In words: Central nervous / psychopharmacological activity, side effects and toxicity, general statement.

Some results are limits rather than exact numbers.

In turn, `Cc1ccc2c(c1)C(c1ccccc1)=NCC1COCCN21` (stereo not shown) [C] gave a 50% lethal dose (LD50) at 168 h in series [1] of over 1430 mg/kg. Moreover, in series [2], the inhibition in vivo at 200 mg/kg came to 68%. The ED50 with muscle tone was over 316 mg/kg; in series [3] it was 139 mg/kg.
The molecule `COc1ccc2c(c1)N1CCOCC1CN=C2c1ccccc1` (stereo not shown) [F] showed an LD50 at 168 h in series [1] of over 1430 mg/kg. Also, in series [2], the inhibition in vivo at 100 mg/kg came to 42%. The 50% effective dose (ED50) in the series with muscle tone is over 308 mg/kg; in series [3] it was 202 mg/kg.
On to `C=CCN1CCN2c3ccc(Cl)cc3C(c3ccccc3)=NCC2C1` (stereo not shown) [I], for which the LD50 at 168 h in series [1] worked out at 1090 mg/kg. In series [2], the inhibition in vivo at 200 mg/kg turned out to be 81%. Further, the figures for the ED50 (in the series with muscle tone; in series [3]) were over 316 mg/kg and 100 mg/kg, respectively.
Take `CN1C(=O)CN=C(c2ccccc2)c2cc(Cl)ccc21` [S]: the inhibition in vivo at 12 mg/kg in series [2] (12 mg/kg oral, higher doses not tolerable) stood at 28%. For the same molecule, the median effective dose (ED50) with muscle tone came out at 4.2 mg/kg; in series [3], 1.5 mg/kg.
Consider `Clc1ccc2c(c1)C(c1ccccc1Cl)=NCC1COCCN21` (stereo not shown) [E], for which the median lethal dose (LD50) at 168 h in series [1] is over 1470 mg/kg. In series [2], the inhibition in vivo at 100 mg/kg worked out at 86%. Also, the median effective dose (ED50) is over 316 mg/kg with muscle tone and 11.8 mg/kg in series [3].
Take `Cc1cc2c(cc1Cl)N1CCOCC1CN=C2c1ccccc1` (stereo not shown) [G]: the median lethal dose (LD50) at 168 h in series [1] is over 1520 mg/kg. Also, in series [2], the inhibition in vivo at 200 mg/kg was determined as 77%. Also, the ED50 in the series on muscle tone was over 327 mg/kg; in series [3] it was 119 mg/kg.
For the molecule `Fc1ccc2c(c1)C(c1ccccc1)=NCC1COCCN21` (stereo not shown) [B], in series [1], the median lethal dose (LD50) at 168 h was over 1370 mg/kg. Also, the inhibition in vivo at 100 mg/kg in series [2] was 77%. For the same molecule, the median effective dose (ED50) in the series with muscle tone is over 296 mg/kg; in series [3] it was 80.3 mg/kg.
On to `CN1C(=O)CN=C(c2ccccc2)c2cc(Cl)ccc21` [Substance S, 7-chloro-1-methyl-5-phenyl-1,3-dihydro-2H-1,4-benzodiazepin-2-one], for which, in the series with central nervous system (already with small doses), the psychopharmacological effect entry is given as “strong”. The “tolerability of higher doses sufficient to achieve an improved ulcer inhibiting effect” value in the series on central nervous system (higher doses) is “not tolerable”.
As for `Cc1ccc2c(c1)C(c1ccccc1)=NCC1CN(C)CCN21` (stereo not shown) [L], the LD50 at 168 h in series [1] is over 1010 mg/kg. In addition, the inhibition in vivo at 250 mg/kg in series [2] (250 mg/kg oral) stood at 70%. For the same molecule, the ED50 with muscle tone was over 215 mg/kg; in series [3], 164 mg/kg.
For the molecule `Cc1ccc2c(c1)N1CCOCC1CN=C2c1ccccc1` (stereo not shown) [D], the LD50 at 168 h in series [1] was over 1470 mg/kg. Moreover, the inhibition in vivo at 100 mg/kg in series [2] turned out to be 70%. Also, the ED50 is over 316 mg/kg in the series on muscle tone and 138 mg/kg in series [3].
In the case of `Clc1ccc2c(c1)C(c1ccccc1)=NCC1CN(CCc3ccccc3)CCN21` (stereo not shown) [K], the LD50 at 168 h in series [1] is over 1310 mg/kg. Besides, the inhibition in vivo at 200 mg/kg in series [2] came to 85%. The ED50 in the series with muscle tone is over 284 mg/kg; in series [3], 110 mg/kg.
As for `Clc1ccc2c(c1)C(c1ccccc1)=NCC1COCCN21` (stereo not shown) [A], the 50% lethal dose (LD50) at 168 h in series [1] came to 2260 mg/kg. In series [2] (150 mg/kg oral), the inhibition in vivo at 150 mg/kg was determined as 61%. Besides, the values for the ED50 (in the series on muscle tone; in series [3]) were 285 mg/kg and 31.6 mg/kg, respectively.
Regarding `Clc1ccc2c(c1)C(c1ccccc1)=NCC1CSCCN21` (stereo not shown) [H], the LD50 at 168 h in series [1] is over 1470 mg/kg. In addition, the inhibition in vivo at 100 mg/kg in series [2] amounted to 74%. Besides, the ED50 with muscle tone was found to be 316 mg/kg; in series [3], 153 mg/kg.
